Assay results taken from patent US9624205B2, “Substituted 6,5-fused bicyclic heteroaryl compounds” (Epizyme, Inc., priority 2013, dated 2017).

Assays:
[1] = target: Y641F mutant PRC2 enzyme (EZH2 Y641F) (Homo sapiens (Human), UniProt Q15910, Y641F); assay: PRC2 enzyme assay on peptide substrate, EZH2 Y641F mutant; type: biochemical; conditions: EZH2 Y641F PRC2, H3K27me2 peptide substrate
Text: (§1) Protocol for Wild-Type and Mutant PRC2 Enzyme Assays
(§2) Peptides representative of human histone H3 residues 21-44 containing either an unmodified lysine 27 (H3K27me0) or dimethylated lysine 27 (H3K27me2) are synthesized with a C-terminal G(K-biotin) linker-affinity tag motif and a C-terminal amide cap by 21st Century Biochemicals. […] The sequences are listed below.
(§3) Human PRC2 enzymes are purified as 4-component enzyme complexes co-expressed in Spodoptera frugiperda (sf9) cells using a baculovirus expression system. […] The EED subunit contains an N-terminal FLAG tag that is used to purify the entire 4-component complex from sf9 cell lysates.
(§4) The assays are all performed in a buffer consisting of 20 mM bicine (pH=7.6), 0.5 mM DTT, 0.005% BSG and 0.002% Tween20, prepared on the day of use. Compounds in 100% DMSO (1 μL) are spotted into polypropylene 384-well V-bottom plates (Greiner) using a Platemate 2×3 outfitted with a 384-channel pipet head (Thermo). DMSO (1 μL) is added to columns 11, 12, 23, 24, rows A-H for the maximum signal control, and SAH, a known product and inhibitor of PRC2 (1 μL) is added to columns 11, 12, 23, 24, rows I-P for the minimum signal control. A cocktail (4 μL) containing the wild-type PRC2 enzyme and H3K27me0 peptide or any of the Y641 mutant enzymes and H3K27me2 peptide is added by Multidrop Combi (Thermo). The compounds are allowed to incubate with PRC2 for 30 min at 25° C., then a cocktail (10 μL) containing a mixture of non-radioactive and ^3H-SAM is added to initiate the reaction (final volume=[…]). In all cases, the final concentrations are as follows: wild-type or mutant PRC2 enzyme was 4 nM, SAH in the minimum signal control wells was 1 mM and the DMSO concentration was 1%. The assays are stopped by the addition of non-radioactive SAM (10 μL) to a final concentration of 600 μM, which dilutes the ^3H-SAM to a level where its incorporation into the peptide substrate is no longer detectable. 5 μL of the reaction in the 384-well polypropylene plate is then transferred to a 384-well Flashplate and the biotinylated peptides are allowed to bind to the streptavidin surface for at least 1 h before being washed three times with 0.1% Tween20 in a Biotek ELx405 plate washer. The plates are then read in a PerkinElmer TopCount platereader to measure the quantity of ^3H-labeled peptide bound to the Flashplate surface, measured as disintegrations per minute (dpm) or alternatively, referred to as counts per minute (cpm).
(§5) Where top and bottom are the normally allowed to float, but may be fixed at 100 or 0 respectively in a 3-parameter fit. The Hill Coefficient normally allowed to float but may also be fixed at 1 in a 3-parameter fit. Y is the % inhibition and X is the compound concentration.

[2] = target: wild-type PRC2 enzyme (WT EZH2) (Homo sapiens (Human), UniProt Q15910); assay: PRC2 enzyme assay on peptide substrate, wild-type EZH2; type: biochemical; conditions: wild-type PRC2, H3K27me0 peptide substrate
wild-type PRC2 enzyme (WT EZH2), sequence (Q15910 whole entry): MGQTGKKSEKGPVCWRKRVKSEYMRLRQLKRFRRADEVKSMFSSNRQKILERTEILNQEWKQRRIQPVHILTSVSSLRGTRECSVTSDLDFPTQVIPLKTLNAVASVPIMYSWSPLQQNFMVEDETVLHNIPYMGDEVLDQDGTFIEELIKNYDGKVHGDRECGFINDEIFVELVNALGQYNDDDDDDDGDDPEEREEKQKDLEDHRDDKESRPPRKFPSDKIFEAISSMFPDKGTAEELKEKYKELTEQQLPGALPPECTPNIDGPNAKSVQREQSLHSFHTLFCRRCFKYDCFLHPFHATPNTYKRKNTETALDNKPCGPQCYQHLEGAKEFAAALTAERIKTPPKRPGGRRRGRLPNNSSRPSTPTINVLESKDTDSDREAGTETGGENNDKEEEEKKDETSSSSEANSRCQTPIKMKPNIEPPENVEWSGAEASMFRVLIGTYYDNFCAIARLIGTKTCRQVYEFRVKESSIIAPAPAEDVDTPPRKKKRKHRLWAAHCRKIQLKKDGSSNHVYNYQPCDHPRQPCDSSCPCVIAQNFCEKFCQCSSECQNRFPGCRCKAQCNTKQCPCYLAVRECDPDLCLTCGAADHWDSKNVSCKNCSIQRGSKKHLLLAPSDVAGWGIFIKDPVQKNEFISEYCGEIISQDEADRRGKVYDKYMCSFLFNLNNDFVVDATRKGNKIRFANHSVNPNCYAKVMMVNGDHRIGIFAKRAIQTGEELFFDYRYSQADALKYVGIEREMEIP
wild-type PRC2 enzyme (WT EZH2), sequence (O75530 whole entry partner): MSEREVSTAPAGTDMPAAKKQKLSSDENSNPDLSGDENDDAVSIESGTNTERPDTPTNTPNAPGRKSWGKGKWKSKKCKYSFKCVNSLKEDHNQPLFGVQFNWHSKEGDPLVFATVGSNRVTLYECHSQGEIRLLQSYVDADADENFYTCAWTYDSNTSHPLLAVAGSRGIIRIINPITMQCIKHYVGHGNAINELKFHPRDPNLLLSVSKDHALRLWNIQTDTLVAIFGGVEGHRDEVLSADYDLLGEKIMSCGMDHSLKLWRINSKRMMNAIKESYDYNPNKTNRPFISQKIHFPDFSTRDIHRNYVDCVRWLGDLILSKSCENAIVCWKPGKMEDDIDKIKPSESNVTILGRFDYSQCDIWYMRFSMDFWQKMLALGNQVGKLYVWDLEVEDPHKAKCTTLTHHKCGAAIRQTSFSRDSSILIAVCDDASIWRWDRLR
wild-type PRC2 enzyme (WT EZH2), sequence (Q15022 whole entry partner): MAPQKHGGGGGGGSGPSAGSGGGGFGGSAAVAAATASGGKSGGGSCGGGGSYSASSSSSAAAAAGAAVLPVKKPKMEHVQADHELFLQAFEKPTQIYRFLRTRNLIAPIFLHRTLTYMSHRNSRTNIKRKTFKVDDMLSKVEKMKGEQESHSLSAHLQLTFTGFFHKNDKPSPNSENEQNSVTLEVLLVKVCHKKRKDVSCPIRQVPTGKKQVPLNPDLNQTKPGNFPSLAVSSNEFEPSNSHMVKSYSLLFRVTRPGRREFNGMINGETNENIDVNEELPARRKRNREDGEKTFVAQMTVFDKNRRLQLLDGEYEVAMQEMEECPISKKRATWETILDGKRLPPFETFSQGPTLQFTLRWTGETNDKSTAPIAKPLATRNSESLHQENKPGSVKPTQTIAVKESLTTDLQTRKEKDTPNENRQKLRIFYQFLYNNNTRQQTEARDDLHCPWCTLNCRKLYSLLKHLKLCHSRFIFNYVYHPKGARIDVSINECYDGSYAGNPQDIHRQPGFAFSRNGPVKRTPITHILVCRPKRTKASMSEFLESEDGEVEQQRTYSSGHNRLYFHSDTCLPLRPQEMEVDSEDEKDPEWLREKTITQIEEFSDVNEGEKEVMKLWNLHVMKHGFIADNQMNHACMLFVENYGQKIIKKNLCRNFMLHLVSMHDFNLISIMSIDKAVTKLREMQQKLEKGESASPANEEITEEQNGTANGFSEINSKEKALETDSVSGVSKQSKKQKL
wild-type PRC2 enzyme (WT EZH2), sequence (Q09028 whole entry partner): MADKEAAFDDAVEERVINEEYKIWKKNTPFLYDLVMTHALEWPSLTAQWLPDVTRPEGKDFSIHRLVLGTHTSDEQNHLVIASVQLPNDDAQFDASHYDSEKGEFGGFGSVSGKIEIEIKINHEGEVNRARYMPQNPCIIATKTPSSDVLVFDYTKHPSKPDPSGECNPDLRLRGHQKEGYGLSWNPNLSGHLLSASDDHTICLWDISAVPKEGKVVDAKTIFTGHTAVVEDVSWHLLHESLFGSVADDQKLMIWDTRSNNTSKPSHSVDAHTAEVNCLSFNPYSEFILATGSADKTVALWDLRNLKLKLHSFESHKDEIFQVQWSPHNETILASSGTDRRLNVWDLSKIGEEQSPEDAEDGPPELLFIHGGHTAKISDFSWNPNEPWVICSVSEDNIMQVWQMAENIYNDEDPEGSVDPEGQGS
Text: as §1, §2, §3, §4, §5

Y641F mutant PRC2 enzyme (EZH2 Y641F), sequence (Q15910 whole entry Y641F): as the sequence (Q15910 whole entry) above, with Y641F counted along it
Y641F mutant PRC2 enzyme (EZH2 Y641F), sequence (O75530 whole entry partner): as the sequence (O75530 whole entry partner) above
Y641F mutant PRC2 enzyme (EZH2 Y641F), sequence (Q15022 whole entry partner): as the sequence (Q15022 whole entry partner) above
Y641F mutant PRC2 enzyme (EZH2 Y641F), sequence (Q09028 whole entry partner): as the sequence (Q09028 whole entry partner) above

**Q.** `COc1nn(C)c(C)c1CNC(=O)c1c(C)n(C(C)C2CCOCC2)c2ccccc12` (stereo not shown) [Compound 1, N-((3-methoxy-1,5-dimethyl-1H-pyrazol-4-yl)methyl)-2-methyl-1-(1-(tetrahydro-2H-pyran-4-yl)ethyl)-1H-indole-3-carboxamide] was tested. Which IC50 [1] did it give?
**A.** The IC50 was 28 µM.

**Q.** What about the IC50 [2] of the same compound?
**A.** The IC50 was over 50 µM.

**Q.** For `Cc1c(CNC(=O)c2c(C)n(C(C)C3CCOCC3)c3ccccc23)c(=O)[nH]n1C` (stereo not shown) [Compound 2, N-((1,5-dimethyl-3-oxo-2,3-dihydro-1H-pyrazol-4-yl)methyl)-2-methyl-1-(1-(tetrahydro-2H-pyran-4-yl)ethyl)-1H-indole-3-carboxamide], which IC50 [1] is on record?
**A.** The IC50 was over 50 µM.

**Q.** What about the IC50 [2] of the same compound?
**A.** The IC50 was over 50 µM.

**Q.** Which IC50 [1] does the source give for `CCC(C)n1cc(C)c2c(C(=O)NCc3c(OC)nn(C)c3C)cc(-c3ccc(N4CCNCC4)nc3)cc21` (stereo not shown) [Compound 3, 1-(sec-butyl)-N-((3-methoxy-1,5-dimethyl-1H-pyrazol-4-yl)methyl)-3-methyl-6-(6-(piperazin-1-yl)pyridin-3-yl)-1H-indole-4-carboxamide] here?
**A.** Its IC50 is 0.548 µM.

**Q.** And the IC50 [2]?
**A.** Its IC50 is 4.33 µM.

**Q.** How did the IC50 [1] turn out when `CCC(C)n1cc(C)c2c(C(=O)NCc3c(C)n(C)[nH]c3=O)cc(-c3ccc(N4CCNCC4)nc3)cc21` (stereo not shown) [Compound 4, 1-(sec-butyl)-N-((1,5-dimethyl-3-oxo-2,3-dihydro-1H-pyrazol-4-yl)methyl)-3-methyl-6-(6-(piperazin-1-yl)pyridin-3-yl)-1H-indole-4-carboxamide] was run?
**A.** Its IC50 is 1.1 µM.

**Q.** And the IC50 [2]?
**A.** Its IC50 is 5.63 µM.

**Q.** Which IC50 [1] does the source give for `CCC(C)n1cc(C)c2c(C(=O)NCc3c(OC)nn(CC)c3C)cc(-c3ccc(N4CCNCC4)nc3)cc21` (stereo not shown) [Compound 5, 1-(sec-butyl)-N-((1-ethyl-3-methoxy-5-methyl-1H-pyrazol-4-yl)methyl)-3-methyl-6-(6-(piperazin-1-yl)pyridin-3-yl)-1H-indole-4-carboxamide] here?
**A.** The IC50 was 1.99 µM.

**Q.** What about the IC50 [2] of the same compound?
**A.** The IC50 was 22 µM.
